Our source for the IC50 values is US10689362B2, “Quinoxaline compounds as type III receptor tyrosine kinase inhibitors” (Development Center for Biotechnology, priority 2016, dated 2020).

Each structure is given as a SMILES string. pIC50: −log10 of the molar value.

Assay [1] has as its target c-KIT kinase (Homo sapiens (Human), UniProt P10721). In words: c-KIT kinase assay (radiometric). The class given is biochemical. The procedure:
(§1) Inhibition of c-KIT kinase activity by a test compound disclosed herein was estimated by radiometric assay. Standard assay conditions were 20 ng of recombinant c-Kit (SignalChem) with 2 μg of substrate Poly-(Glu 4:Tyr 1) (sigma) in the assay buffer in kinase reaction buffer (10 mM MOPS pH 7.0, 0.21 mM EDTA, 0.5% glycerol, 0.001% Brij-35, 0.01 2-mercaptoehtanol, 1 mg/ml BSA, 10 mM MgCl2, 10 mM MnCl2, 10 μM ATP, 0.1 μCi per well [^33P]-ATP, in the presence of test compound (diluted in final concentration of 4% DMSO) or DMSO control, with a final volume of 25 μl for 60 minutes at 30° C. The reaction was stopped by adding 5 μl of 3% phosphoric acid solution. Total reaction solution was then harvested onto a filter plate (UniFilter-96 GF/B, PerkinElmer), and washed 20 times for 5 min with dH2O. 30 μl of MicroScint™-20 Cocktail (PerkinElmer) was added to dried plate. The plate was sealed and counted using a TopCount scintillation detector (PerkinElmer). […] The IC50 values of quinoxaline compounds of this invention against c-KIT kinase were determined using the GraphPad Prism 5 software.
(§2) The IC50 values for selected quinoxaline compounds of this invention against CSF-1R, c-KIT, FLT3, and PDGFRβ are summarized in Table 3.

Assay [2] deals with FLT3 kinase (Homo sapiens (Human), UniProt P36888). In words: FLT3 kinase assay (radiometric). Format: biochemical. The procedure: as §1, with “of FLT3” for “of c-KIT”, “were 5” for “were 20”, “recombinant FLT3 (Thermo Fisher)” for “recombinant c-Kit (SignalChem)”, “BSA, MgCl2” for “BSA,”, “10 mM,” for “10 mM MgCl2, 10 mM MnCl2,”, “against FLT3” for “against c-KIT”
Chain of FLT3 kinase (P36888 27-993): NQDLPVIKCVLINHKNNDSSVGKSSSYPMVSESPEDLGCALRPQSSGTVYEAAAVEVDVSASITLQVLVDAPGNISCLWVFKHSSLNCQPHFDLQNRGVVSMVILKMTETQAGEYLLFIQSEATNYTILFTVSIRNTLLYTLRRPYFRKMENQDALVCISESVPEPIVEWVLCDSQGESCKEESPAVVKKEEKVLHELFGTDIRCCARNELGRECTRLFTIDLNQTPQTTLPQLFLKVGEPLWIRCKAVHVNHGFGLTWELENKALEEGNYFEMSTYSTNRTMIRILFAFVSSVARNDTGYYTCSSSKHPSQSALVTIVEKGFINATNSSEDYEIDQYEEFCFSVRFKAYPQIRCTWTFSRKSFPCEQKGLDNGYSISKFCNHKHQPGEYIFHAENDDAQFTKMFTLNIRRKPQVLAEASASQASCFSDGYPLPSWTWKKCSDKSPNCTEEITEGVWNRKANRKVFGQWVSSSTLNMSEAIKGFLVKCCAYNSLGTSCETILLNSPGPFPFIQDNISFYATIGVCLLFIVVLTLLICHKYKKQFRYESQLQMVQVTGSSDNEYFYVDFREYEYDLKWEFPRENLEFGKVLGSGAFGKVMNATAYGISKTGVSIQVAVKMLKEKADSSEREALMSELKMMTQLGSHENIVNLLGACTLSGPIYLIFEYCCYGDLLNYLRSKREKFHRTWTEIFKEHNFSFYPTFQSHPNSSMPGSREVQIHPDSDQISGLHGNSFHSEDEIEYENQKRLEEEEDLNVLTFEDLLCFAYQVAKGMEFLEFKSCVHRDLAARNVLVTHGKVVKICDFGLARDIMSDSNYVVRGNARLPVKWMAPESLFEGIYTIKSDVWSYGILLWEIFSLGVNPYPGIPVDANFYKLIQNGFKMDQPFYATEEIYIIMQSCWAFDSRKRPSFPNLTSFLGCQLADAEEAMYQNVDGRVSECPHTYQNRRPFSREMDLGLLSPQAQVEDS
as §2

For assay [3], the target named is CSF-1R kinase (Homo sapiens (Human), UniProt P07333). In words: CSF-1R kinase assay (AlphaScreen). Format: biochemical. The procedure:
Inhibition of CSF-1R kinase activity by a test compound disclosed herein was estimated by AlphaScreen (PerkinElmer). […] Reactions were incubated at 30° C. for 45 min and stopped by adding 5 μL of 50 mM EDTA. Analysis of resulting product using an AlphaScreen kit, and counted with Enspire Alpha (PerkinElmer). […] The IC50 values of quinoxaline compounds of this invention against CSF-1R kinase were determined using the GraphPad Prism 5 software.

Assay [4] addresses PDGFRβ kinase (Homo sapiens (Human), UniProt P09619). In words: PDGFRβ kinase assay (radiometric). The conditions noted are these: bound. Format: biochemical. How it is done: as §1, with “of PDGFRβ” for “of c-KIT”, “were 10” for “were 20”, “recombinant PDGFRβ” for “recombinant c-Kit”, “well [^33P]-ATP),” for “well [^33P]-ATP,”, “against PDGFRβ” for “against c-KIT”
as §2

Assay [5] has as its system MV4-11 human acute myeloid leukemia cell with FLT3-ITD mutation. Briefly: MV4-11 cell proliferation assay (CellTiter-96). The class given is cell-based. As to conditions: Cytotoxicity, MV4-11 cells, 72 hours. The procedure: (§3) Inhibition of cell growth by compounds was measured using CellTiter™-96 assay. The cytotoxicity of compounds was evaluated in CSF-1-dependent M-NFS-60 mouse myeloid leukemia cell, FLT3 signal addicted MV4-11 human acute myeloid leukemia cell with FLT3-ITD mutation, c-KIT signal addicted Kasumi-1 human acute myeloid leukemia cell with c-KIT N822K activating mutation, and THP-1 human acute monocytic leukemia cell harboring NRAS G12D mutation.
The compounds disclosed herein were tested in MV4-11 cell proliferation assay to determine their cellular potency against FLT3 kinase. MV4-11 human acute myeloid leukemia cells harbor ligand-independent FLT3-ITD activating mutation, which render its proliferation FLT3-ITD dependent. Inhibition of FLT3 kinase activity will cause reduced growth and/or cell death. […] Cells were allowed to expand until reaching saturation at which point they were subcultured or harvested for assay use.
(§4) M-NFS-60, Kasumi-1, MV4-11 and THP-1 cells were seeded into 96-well plates at 2000, 64000, 6500, and 5000 cells/well, respectively, and incubated at 37° C., 5% CO2 overnight. Then, these seeded cells were treated with increasing concentrations of the test compounds and incubated for another 72 hours. At the end of the incubation, CellTiter96® AQueous One Solution Reagent (Promega) was added and incubated for 4 hours. Cell viability was determined by measuring absorbance at 490 nm using EMax® microplate reader (Molecular Devices).

Assay [6] has as its system Kasumi-1 human acute myeloid leukemia cell with c-KIT N822K activating mutation. In words: Kasumi-1 cell proliferation assay (CellTiter-96). The class given is cell-based. The conditions noted are these: Cytotoxicity, Kasumi-1 cells, 72 hours. How it is done:
as §3
The compounds disclosed herein were tested in Kasumi cell proliferation assay to determine their cellular potency against c-KIT kinase. Kasumi human acute myeloid leukemia cells harbor ligand-independent N822K c-KIT activating mutation, thus the cell proliferation relied on c-KIT signal. Inhibition of c-KIT kinase activity will cause reduced growth and/or cell death. […] Cells were allowed to expand until reaching saturation at which point they were subcultured or harvested for assay use.
as §4

In assay [7] the test system is THP-1 human acute monocytic leukemia cell harboring NRAS G12D mutation. In words: THP-1 cell proliferation assay (counter screen, CellTiter-96). Format: cell-based. The conditions noted are these: Cytotoxicity, THP-1 cells (counter screen), 72 hours. The procedure: as §3
THP-1 human acute monocytic leukemia cells harbor NRAS G12D mutation, which renders cell proliferate independently of class III RTKs signal. […] Cells were allowed to expand until reaching saturation at which point they were subcultured or harvested for assay use.
as §4

In assay [8] the test system is CSF-1-dependent M-NFS-60 mouse myeloid leukemia cell. In words: M-NFS-60 cell proliferation assay (CellTiter-96). The class given is cell-based. As to conditions: Cytotoxicity, M-NFS-60 cells, 72 hours. The procedure: as §3
The compounds disclosed herein were tested in M-NFS-60 cell proliferation assay to determine their cellular potency against CSF-1R. […] Inhibition of CSF-1R kinase activity will cause reduced growth and/or cell death. […] Cells were allowed to expand until reaching saturation at which point they were subcultured or harvested for assay use.
as §4

Chain of CSF-1R kinase (P07333 20-972): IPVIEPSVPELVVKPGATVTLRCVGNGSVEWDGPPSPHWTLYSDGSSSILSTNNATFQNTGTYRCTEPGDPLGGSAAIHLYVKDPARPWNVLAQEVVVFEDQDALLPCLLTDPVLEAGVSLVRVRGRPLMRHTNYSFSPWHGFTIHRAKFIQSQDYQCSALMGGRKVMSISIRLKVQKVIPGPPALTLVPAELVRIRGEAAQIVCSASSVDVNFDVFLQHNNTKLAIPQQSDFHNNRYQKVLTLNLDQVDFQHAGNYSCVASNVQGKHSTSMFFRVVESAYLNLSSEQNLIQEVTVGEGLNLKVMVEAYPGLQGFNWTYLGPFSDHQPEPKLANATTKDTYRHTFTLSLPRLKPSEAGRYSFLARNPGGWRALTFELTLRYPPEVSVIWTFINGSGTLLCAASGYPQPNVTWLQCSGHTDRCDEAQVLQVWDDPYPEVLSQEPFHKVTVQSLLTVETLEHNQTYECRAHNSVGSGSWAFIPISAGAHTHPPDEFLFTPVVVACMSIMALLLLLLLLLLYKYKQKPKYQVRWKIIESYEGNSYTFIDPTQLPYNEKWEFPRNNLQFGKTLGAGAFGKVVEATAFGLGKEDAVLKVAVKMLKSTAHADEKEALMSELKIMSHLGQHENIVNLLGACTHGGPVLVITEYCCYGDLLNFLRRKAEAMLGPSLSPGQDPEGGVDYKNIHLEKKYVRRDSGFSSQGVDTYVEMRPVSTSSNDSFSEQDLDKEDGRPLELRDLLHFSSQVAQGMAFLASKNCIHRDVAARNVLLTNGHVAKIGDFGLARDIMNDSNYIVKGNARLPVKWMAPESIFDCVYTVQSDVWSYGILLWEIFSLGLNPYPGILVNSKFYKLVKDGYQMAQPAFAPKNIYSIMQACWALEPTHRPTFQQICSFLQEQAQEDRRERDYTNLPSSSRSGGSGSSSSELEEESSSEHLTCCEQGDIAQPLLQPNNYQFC
Chain of c-KIT kinase (P10721 26-976): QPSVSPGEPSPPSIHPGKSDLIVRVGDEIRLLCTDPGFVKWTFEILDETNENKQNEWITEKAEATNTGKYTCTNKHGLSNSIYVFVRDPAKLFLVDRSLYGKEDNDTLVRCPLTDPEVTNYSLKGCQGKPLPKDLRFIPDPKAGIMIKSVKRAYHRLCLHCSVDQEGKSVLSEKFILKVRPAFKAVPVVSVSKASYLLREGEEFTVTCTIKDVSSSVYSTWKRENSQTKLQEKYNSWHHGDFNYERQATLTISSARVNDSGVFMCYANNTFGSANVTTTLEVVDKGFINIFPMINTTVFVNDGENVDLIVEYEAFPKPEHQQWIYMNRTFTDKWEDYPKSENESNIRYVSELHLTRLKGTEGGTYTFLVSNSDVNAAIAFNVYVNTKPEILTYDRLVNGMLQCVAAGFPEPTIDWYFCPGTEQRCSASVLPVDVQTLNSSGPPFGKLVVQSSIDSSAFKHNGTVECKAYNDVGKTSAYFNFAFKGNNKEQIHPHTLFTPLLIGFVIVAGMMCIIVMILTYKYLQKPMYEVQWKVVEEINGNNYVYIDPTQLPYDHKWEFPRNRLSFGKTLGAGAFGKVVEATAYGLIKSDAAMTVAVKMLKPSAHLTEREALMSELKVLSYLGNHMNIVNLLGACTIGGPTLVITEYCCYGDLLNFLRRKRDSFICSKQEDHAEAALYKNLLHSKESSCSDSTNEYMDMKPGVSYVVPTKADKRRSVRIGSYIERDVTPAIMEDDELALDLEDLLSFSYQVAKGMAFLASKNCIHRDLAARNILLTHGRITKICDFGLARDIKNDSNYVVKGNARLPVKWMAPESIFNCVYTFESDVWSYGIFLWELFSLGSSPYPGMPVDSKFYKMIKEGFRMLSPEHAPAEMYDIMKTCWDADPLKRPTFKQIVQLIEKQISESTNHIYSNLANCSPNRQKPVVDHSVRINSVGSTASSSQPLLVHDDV
Chain of PDGFRβ kinase (P09619 33-1106): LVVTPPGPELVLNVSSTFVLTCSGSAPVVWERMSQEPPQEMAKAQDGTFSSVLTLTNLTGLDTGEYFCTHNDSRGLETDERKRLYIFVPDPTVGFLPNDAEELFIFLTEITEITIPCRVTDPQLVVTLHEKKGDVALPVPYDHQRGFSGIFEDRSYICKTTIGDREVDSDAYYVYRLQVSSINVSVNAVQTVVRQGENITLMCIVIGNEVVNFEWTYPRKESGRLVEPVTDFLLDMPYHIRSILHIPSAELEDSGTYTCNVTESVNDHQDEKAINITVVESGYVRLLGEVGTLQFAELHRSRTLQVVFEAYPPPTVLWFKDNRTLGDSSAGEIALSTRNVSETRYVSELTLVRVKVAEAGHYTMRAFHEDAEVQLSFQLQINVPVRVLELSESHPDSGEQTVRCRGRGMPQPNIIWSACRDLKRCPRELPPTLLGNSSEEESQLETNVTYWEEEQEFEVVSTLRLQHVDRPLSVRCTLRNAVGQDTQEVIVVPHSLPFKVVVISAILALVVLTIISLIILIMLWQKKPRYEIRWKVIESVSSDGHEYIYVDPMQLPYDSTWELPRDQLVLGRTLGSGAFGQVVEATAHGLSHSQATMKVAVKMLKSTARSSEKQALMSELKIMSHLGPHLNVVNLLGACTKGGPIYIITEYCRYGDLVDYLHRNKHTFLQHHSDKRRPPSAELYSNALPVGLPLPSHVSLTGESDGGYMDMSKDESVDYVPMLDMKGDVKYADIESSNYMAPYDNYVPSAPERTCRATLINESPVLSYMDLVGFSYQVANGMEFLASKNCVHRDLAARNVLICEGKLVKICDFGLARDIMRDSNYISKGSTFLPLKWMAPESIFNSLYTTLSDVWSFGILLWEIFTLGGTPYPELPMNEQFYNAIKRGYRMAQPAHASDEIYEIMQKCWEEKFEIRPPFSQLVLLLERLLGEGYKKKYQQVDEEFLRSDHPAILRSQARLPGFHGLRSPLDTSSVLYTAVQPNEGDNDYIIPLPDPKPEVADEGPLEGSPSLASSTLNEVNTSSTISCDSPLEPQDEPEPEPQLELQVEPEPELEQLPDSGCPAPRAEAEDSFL

A word on the pIC50: it is the negative decadic logarithm of the IC50, by convention in mol/L. A low value points to a high IC50. With `COc1ccc(COc2ccc(Nc3ccc4ncc(OC)nc4c3C#N)cc2OC)cc1` [Example 3, 3-methoxy-6-((3-methoxy-4-((4-methoxybenzyl)oxy)phenyl)amino)quinoxaline-5-carbonitrile], the negative logarithm of the IC50 (pIC50) is 6.52 to 7.00 in assay [1] (class symbol), less than 6.00 in assay [2] (bound), 6.00 to 6.52 in assay [3] (class symbol) and less than 6.00 in assay [4].

`COc1cnc2ccc(Nc3ccc(NCc4ccc(C(F)(F)F)cc4)nc3)c(C#N)c2n1` [Example 4, 3-methoxy-6-((6-((4-(trifluoromethyl)benzyl)amino)pyridin-3-yl)amino)quinoxaline-5-carbonitrile]: the pIC50 in assay [1] (class symbol) was 6.00 to 6.52; in assay [2] (bound), less than 6.00; in assay [5], 5.00 to 6.00; in assay [6], 5.00 to 6.00; in assay [7] it was less than 5.00; in assay [8], less than 5.00. Further, the pIC50 in assay [3] (bound) and in assay [4] was less than 6.00 each time.

In the case of `COc1ccc(COc2ccc(Nc3ccc4ncc(OC)nc4c3)cc2OC)cc1` [Example 5, 3-methoxy-N-(3-methoxy-4-((4-methoxybenzyl)oxy)phenyl)quinoxalin-6-amine], the pIC50 in assay [1] (bound) is less than 6.00; in assay [2] (bound) it was less than 6.00; in assay [5] it was 5.00 to 6.00; in assay [6] it was 5.00 to 6.00; in assay [7], less than 5.00; in assay [8], 5.00 to 6.00. The figures for the negative logarithm of the IC50 (pIC50) in assay [3] (class symbol) and in assay [4] were 6.52 to 7.00 and less than 6.00, respectively.

With `COc1ccc(COc2ccc(Nc3ccc4ncc(OCCN(C)C)nc4c3C#N)cc2OC)cc1` [Example 13, 3-(2-(dimethylamino)ethoxy)-6-((3-methoxy-4-((4-methoxybenzyl)oxy)phenyl)amino)quinoxaline-5-carbonitrile], the pIC50 in assay [1] (class symbol) is 6.00 to 6.52; in assay [2] (bound) it was less than 6.00; in assay [5], 5.00 to 6.00; in assay [6] it was 5.00 to 6.00; in assay [7] it was 5.00 to 6.00; in assay [8], 5.00 to 6.00. For the same compound, the negative-log IC50 (pIC50) in assay [3] (class symbol) was 6.52 to 7.00; in assay [4], less than 6.00.

`CCOc1ccc(COc2ccc(Nc3ccc4ncc(OC)nc4c3C#N)cc2OC)cc1` [Example 20, 6-((4-((4-ethoxybenzyl)oxy)-3-methoxyphenyl)amino)-3-methoxyquinoxaline-5-carbonitrile]: the pIC50 in assay [1] (class symbol) was greater than 7.00; in assay [2] (bound), less than 6.00; in assay [5] it was less than 5.00; in assay [6], 5.00 to 6.00; in assay [7], less than 5.00; in assay [8] it was less than 5.00. Further, the negative-log IC50 (pIC50) in assay [3] (class symbol) was 6.00 to 6.52; in assay [4], less than 6.00.

As to `CCOc1cc(Nc2ccc3ncc(N4CCOCC4)nc3c2C#N)ccc1OCc1ccncc1` [Example 47, 6-((3-ethoxy-4-(pyridin-4-ylmethoxy)phenyl)amino)-3-morpholinoquinoxaline-5-carbonitrile], the negative-log IC50 (pIC50) in assay [5] was 5.00 to 6.00; in assay [6], less than 5.00; in assay [7], less than 5.00; in assay [8] it was 5.00 to 6.00.

For `COc1cc(Nc2ccc3ncc(N4CCOCC4)nc3c2C#N)ccc1OCc1cncn1C` [Example 55, 6-((3-methoxy-4-((1-methyl-1H-imidazol-5-yl)methoxy)phenyl)amino)-3-morpholinoquinoxaline-5-carbonitrile], the negative-log IC50 (pIC50) in assay [1] (class symbol) is 6.00 to 6.52; in assay [2] (bound), less than 6.00; in assay [3] (bound) it was less than 6.00; in assay [4], less than 6.00.

In the case of `COc1cc(Nc2ccc3ncc(N4CCOCC4)nc3c2C#N)ccc1OCc1ccccn1` [Example 57, 6-((3-methoxy-4-(pyridin-2-ylmethoxy)phenyl)amino)-3-morpholinoquinoxaline-5-carbonitrile], the pIC50 in assay [1] (class symbol) was 6.00 to 6.52; in assay [2] (bound), less than 6.00; in assay [3] (bound), less than 6.00; in assay [4] it was less than 6.00.

With `COc1ccc(COc2ccc(Nc3ccc4ncc(-n5ccnc5)nc4c3C#N)cc2OC)cn1` [Example 70, 3-(1H-imidazol-1-yl)-6-((3-methoxy-4-((6-methoxypyridin-3-yl)methoxy)phenyl)amino)quinoxaline-5-carbonitrile], the negative logarithm of the IC50 (pIC50) in assay [1] (bound) is less than 6.00; in assay [2] (bound) it was less than 6.00; in assay [3] (class symbol), greater than 7.00; in assay [4], less than 6.00.

As to `COc1cnc2ccc(Nc3ccc(OCc4ccc(OC)c(C#N)c4)c(OC)c3)c(C#N)c2n1` [Example 140, 6-((4-((3-cyano-4-methoxybenzyl)oxy)-3-methoxyphenyl)amino)-3-methoxyquinoxaline-5-carbonitrile], the pIC50 in assay [1] (bound) was less than 6.00; in assay [2] (bound), less than 6.00; in assay [3] (class symbol) it was 6.52 to 7.00; in assay [4], less than 6.00.

`COc1cc(Nc2ccc3ncc(N4CCOCC4)nc3c2C#N)ccc1OCc1ccc(C)[n+]([O-])c1` [Example 146, 6-((3-methoxy-4-((6-methyl-1-(λ^1-oxidaneyl)-1λ^4-pyridin-3-yl)methoxy)phenyl)amino)-3-morpholinoquinoxaline-5-carbonitrile]: the pIC50 is 6.52 to 7.00 in assay [1] (class symbol); 6.52 to 7.00 in assay [2] (class symbol); 5.00 to 6.00 in assay [5]; 5.00 to 6.00 in assay [6]; less than 5.00 in assay [7]; 5.00 to 6.00 in assay [8].
